Biological target: T1, human OX2 receptor (Homo sapiens, UniProt O43614)
T1 construct: expressed in transfected cells
T1 sequence (O43614 1-444): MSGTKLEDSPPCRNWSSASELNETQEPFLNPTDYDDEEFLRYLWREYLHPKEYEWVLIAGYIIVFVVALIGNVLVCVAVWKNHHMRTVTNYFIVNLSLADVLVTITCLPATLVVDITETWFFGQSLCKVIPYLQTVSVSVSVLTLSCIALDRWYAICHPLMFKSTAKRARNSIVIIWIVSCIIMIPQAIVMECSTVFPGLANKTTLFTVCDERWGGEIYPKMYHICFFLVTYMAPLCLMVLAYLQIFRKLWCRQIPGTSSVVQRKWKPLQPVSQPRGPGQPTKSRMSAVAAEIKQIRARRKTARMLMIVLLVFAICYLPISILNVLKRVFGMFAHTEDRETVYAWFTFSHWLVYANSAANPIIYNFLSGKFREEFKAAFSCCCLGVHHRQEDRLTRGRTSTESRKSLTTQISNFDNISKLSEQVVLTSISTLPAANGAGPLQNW
Test: Measurement of orexin type 2 receptor agonist activity (calcium fluorescence, Fluo-4, FDSS)
Assay type: cell-based
Settings: 3 uM test compound; CHO cells expressing human OX2 receptor; DMSO = 0%, 10 nM orexin A (human) = 100%
Method: In order to obtain cell clones that stably express human orexin type 2 receptor, human orexin type 2 (residues 1-444, NCBI Reference Sequence: AK314279) was constructed in a pcDNA3.1 (+) vector (Invitrogen) to express in mammalian cells. This plasmid DNA was transfected into CHO-K1 cells by electroporation, and stable clones were obtained by limiting dilution using resistance to G418 as a selection marker.
CHO cells in which human OX2 receptor was forcibly expressed were seeded at 10,000 cells/well into a 384-well black transparent bottom plate (BD falcon), and were incubated at 37° C., 5% CO2 for 1 day after incubation at room temperature for 30 minutes. After removing the cell plate medium, assay buffer containing calcium indicator A (HBSS (Thermo Fisher Scientific), 20 mM HEPES (Thermo Fisher Scientific), 0.1% BSA (Sigma-Aldrich), 2.5 μg/mL Fluo-4 AM (Dojin Kagaku), 0.08% Pluronic F127 (Dojin Kagaku), 1.25 mM probenecid (Dojin Kagaku)) was added at 30 μL/well. After incubation in a 5% CO2 incubator at 37° C. for 30 minutes, it was incubated at room temperature for another 30 minutes. Add 10 μL/well of the test compound diluted with assay buffer B (HBSS, 20 mM HEPES, 0.1% BSA), and use FDSS μCELL (Hamamatsu Photonics) to measure the fluorescence value every 1 second for 1 minute, and then every 2 seconds for 1 minute. It was measured for 1 minute and 40 seconds. The amount of fluorescence value when DMSO is added instead of the test compound is defined as 0%, and the amount of fluorescence value when orexin A (human) (Peptide Institute) with a final concentration of 10 nM is added is defined as 100%. The activity (%) of the test compound was calculated.

Structure (SMILES)	OX2R agonist activity (3 uM, %) [%]
CCS(=O)(=O)N[C@H]1Cc2cn(-c3cnn4cccc(-c5c(F)cccc5F)c34)c(=O)n2C1 [Example 2, N-{(6S)-2-[4-(2,6-difluorophenyl)pyrazolo[1,5-a]pyridin-3-yl]-3-oxo-2,5,6,7-tetrahydro-3H-pyrrolo[1,2-c]imidazol-6-yl}ethanesulfonamide]	108
CCS(=O)(=O)N[C@@H]1CN2C(=O)N(c3noc4ccc(F)c(-c5c(F)cccc5F)c34)C[C@@H]2C1(F)F [Example 7, N-{(6R,7aR)-2-[4-(2,6-difluorophenyl)-5-fluoro-1,2-benzoxazol-3-yl]-7,7-difluoro-3-oxohexahydro-1H-pyrrolo[1,2-c]imidazol-6-yl}ethanesulfonamide]	105
CCS(=O)(=O)N[C@@H]1CN2C(=O)N(c3noc4cc(Cl)cc(-c5c(F)cc(F)cc5F)c34)C[C@@H]2C1(F)F [Example 9, N-{(6R,7aR)-2-[6-chloro-4-(2,4,6-trifluorophenyl)-1,2-benzoxazol-3-yl]-7,7-difluoro-3-oxohexahydro-1H-pyrrolo[1,2-c]imidazol-6-yl}ethanesulfonamide]	92
CNS(=O)(=O)N[C@@H]1CN2C(=O)N(c3noc4cccc(-c5c(F)cccc5F)c34)C[C@@H]2C1(F)F [Example 17, N-{(6R,7aR)-2-[4-(2,6-difluorophenyl)-1,2-benzoxazol-3-yl]-7,7-difluoro-3-oxohexahydro-1H-pyrrolo[1,2-c]imidazol-6-yl}-N′-methylsulfuric diamide]	104
COCS(=O)(=O)N[C@H]1C[C@H]2CN(c3noc4cccc(-c5c(F)cccc5F)c34)C(=O)N2C1 [Example 20, N-{(6S,7aS)-2-[4-(2,6-difluorophenyl)-1,2-benzoxazol-3-yl]-3-oxohexahydro-1H-pyrrolo[1,2-c]imidazol-6-yl}-1-methoxymethanesulfonamide]	97
CCS(=O)(=O)N[C@H]1C[C@H]2CN(c3noc4cccc(-c5c(F)ccc(F)c5F)c34)C(=O)N2C1 [Example 21, N-{(6S,7aS)-3-oxo-2-[4-(2,3,6-trifluorophenyl)-1,2-benzoxazol-3-yl]hexahydro-1H-pyrrolo[1,2-c]imidazol-6-yl}ethanesulfonamide]	81
CS(=O)(=O)N[C@@H]1CN2C(=O)N(c3noc4cc(Cl)cc(-c5c(F)cc(F)cc5F)c34)C[C@@H]2C1(F)F [Example 25, N-{(6R,7aR)-2-[6-chloro-4-(2,4,6-trifluorophenyl)-1,2-benzoxazol-3-yl]-7,7-difluoro-3-oxohexahydro-1H-pyrrolo[1,2-c]imidazol-6-yl}methanesulfonamide]	96
CN(C)S(=O)(=O)N[C@H]1C[C@H]2CN(c3noc4cccc(-c5c(F)cccc5F)c34)C(=O)N2C1 [Example 28, N′-{(6S,7aS)-2-[4-(2,6-difluorophenyl)-1,2-benzoxazol-3-yl]-3-oxohexahydro-1H-pyrrolo[1,2-c]imidazol-6-yl}-N,N-dimethylsulfuric diamide]	106
CCS(=O)(=O)N[C@H]1C[C@H]2CN(c3noc4c(C)ccc(-c5c(F)cccc5F)c34)C(=O)N2C1 [Example 30, N-{(6S,7aS)-2-[4-(2,6-difluorophenyl)-7-methyl-1,2-benzoxazol-3-yl]-3-oxohexahydro-1H-pyrrolo[1,2-c]imidazol-6-yl}ethanesulfonamide]	94
CCS(=O)(=O)N[C@H]1C[C@H]2CN(c3noc4cccc(-c5c(F)cccc5C(F)(F)F)c34)C(=O)N2C1 [Example 32, N-[ (6S,7aS)-2-{4-[2-fluoro-6-(trifluoromethyl)phenyl]-1,2-benzoxazol-3-yl}-3-oxohexahydro-1H-pyrrolo[1,2-c]imidazol-6-yl] ethanesulfonamide]	94
CS(=O)(=O)N[C@@H]1CN2C(=O)N(c3noc4cccc(-c5c(F)cccc5F)c34)C[C@@H]2C1(F)F [Example 34, N-{(6R,7aR)-2-[4-(2,6-Difluorophenyl)-1,2-benzoxazol-3-yl]-7,7-difluoro-3-oxohexahydro-1H-pyrrolo[1,2-c]imidazol-6-yl}methanesulfonamide]	106

Next, values leading:

OX2R agonist activity (3 uM, %) [%]	Structure (SMILES)
92	Cc1c(-c2noc3cccc(-c4c(F)cccc4F)c23)c(=O)n2n1CC(NS(C)(=O)=O)C2 (single isomer, unassigned) [Example 340, N-{(2R*)-6-[4-(2,6-difluorophenyl)-1,2-benzoxazol-3-yl]-7-methyl-5-oxo-2,3-dihydro-1H,5H-pyrazolo[1,2-a]pyrazol-2-yl}methanesulfonamide]
103	CCS(=O)(=O)NC1CN2C(=O)N(c3noc4cccc(-c5c(F)cccc5F)c34)C[C@@H]2C1C (stereo in doubt) [Example 158, N-{(6R*,7R*,7aS)-2-[4-(2,6-difluorophenyl)-1,2-benzoxazol-3-yl]-7-methyl-3-oxohexahydro-1H-pyrrolo[1,2-c]imidazol-6-yl}ethanesulfonamide]
101	CCS(=O)(=O)NC1CN2C(=O)N(c3noc4cccc(-c5c(F)cccc5F)c34)C[C@@H]2C1C (stereo in doubt) [Example 183, N-{(6R*,7S*,7aS)-2-[4-(2,6-difluorophenyl)-1,2-benzoxazol-3-yl]-7-methyl-3-oxohexahydro-1H-pyrrolo[1,2-c]imidazol-6-yl}ethanesulfonamide]
96	CCS(=O)(=O)N[C@@H]1CN2C(=O)N(c3noc4cccc(-c5c(F)cccc5F)c34)C[C@@H]2C1(C)C [Example 6, N-{(6S,7aS)-2-[4-(2,6-difluorophenyl)-1,2-benzoxazol-3-yl]-7,7-dimethyl-3-oxohexahydro-1H-pyrrolo[1,2-c]imidazol-6-yl}ethanesulfonamide]
105	CCS(=O)(=O)N[C@H]1Cc2c(C)n(-c3noc4cccc(-c5c(F)cccc5F)c34)c(=O)n2C1 [Example 12, N-{(6S)-2-[4-(2,6-difluorophenyl)-1,2-benzoxazol-3-yl]-1-methyl-3-oxo-2,5,6,7-tetrahydro-3H-pyrrolo[1,2-c]imidazol-6-yl}ethanesulfonamide]
97	CS(=O)(=O)N[C@H]1Cc2cn(-c3noc4cccc(-c5c(F)cccc5F)c34)c(=O)n2C1 [Example 26, N-{(6S)-2-[4-(2,6-difluorophenyl)-1,2-benzoxazol-3-yl]-3-oxo-2,5,6,7-tetrahydro-3H-pyrrolo[1,2-c]imidazol-6-yl}methanesulfonamide]
101	O=C1N(c2noc3cccc(-c4c(F)cccc4F)c23)C[C@@H]2C[C@H](NS(=O)(=O)CF)CN12 [Example 29, N-{(6S,7aS)-2-[4-(2,6-difluorophenyl)-1,2-benzoxazol-3-yl]-3-oxohexahydro-1H-pyrrolo[1,2-c]imidazol-6-yl}-1-fluoromethanesulfonamide]
108	CCS(=O)(=O)N[C@@H]1CN2C(=O)N(c3noc4cccc(-c5c(F)cccc5F)c34)C[C@@H]2C1(F)F [Example 33, N-{(6R,7aR)-2-[4-(2,6-Difluorophenyl)-1,2-benzoxazol-3-yl]-7,7-difluoro-3-oxohexahydro-1H-pyrrolo[1,2-c]imidazol-6-yl}ethanesulfonamide]
